Source: US9833497B2, “Human originated EGF domain proteins and use of the same” (CHENGDU SOURCEBIO LIMITED-LIABILITY COMPANY, priority 2013, dated 2017)

Key:
Type in all cases: cell-based
[1] = system: E. coli DH5α; assay: Antibacterial activity: MIC and growth curve against E. coli DH5α in 96-well plate; conditions: minimal inhibitory concentration against E. coli DH5α; 96-well plate, 5×10^5 CFU/mL, 37° C., judged after 8 h
Procedure, shortened: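 MIC taken as lowest protein level with no bacterial growth, tracked by A600 every 30 min during 37 °C, 175 rpm culture. Two-fold protein series 50-12.5 μg/mL final, triplicate wells, against 5×10^5 CFU/mL of LB-washed mid-log cells.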

[2] = system: E. coli BL21; assay: MIC against Gram-negative bacteria: E. coli BL21; conditions: for MIC E. coli BL21: two-fold serial dilution
Procedure, shortened: (§1)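 Purified recombinant human EGF domain proteins are tested by broth dilution in LB against a 5×10^5 CFU/mL inoculum, with two-fold serial dilutions run in triplicate. Plates are incubated at 37° C with shaking, and the MIC is read as the lowest protein concentration without growth.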

[3] = system: Pseudomonas aeruginosa; assay: MIC against Gram-negative bacteria: Pseudomonas aeruginosa; conditions: for MIC P. aeruginosa: two-fold serial dilution
Procedure, shortened: as §1

[4] = system: Klebsiella pneumonia; assay: MIC against Gram-negative bacteria: Klebsiella pneumonia; conditions: for MIC K. pneumonia: two-fold serial dilution
Procedure, shortened: as §1

[5] = system: Enterobacter cloacae; assay: MIC against Gram-negative bacteria: Enterobacter cloacae; conditions: for MIC E. cloacae: two-fold serial dilution
Procedure, shortened: as §1

[6] = system: Aeromonas hydrophila; assay: MIC against Gram-negative bacteria: Aeromonas hydrophila; conditions: for MIC A. hydrophila: two-fold serial dilution
Procedure, shortened: as §1

[7] = system: Citrobacter diversus; assay: MIC against Gram-negative bacteria: Citrobacter diversus; conditions: for MIC C. diversus: two-fold serial dilution
Procedure, shortened: as §1

[8] = system: Moraxella catarrhalis; assay: MIC against Gram-negative bacteria: Moraxella catarrhalis; conditions: for MIC M. catarrhalis: two-fold serial dilution
Procedure, shortened: as §1

[9] = system: Proteus mirabilis; assay: MIC against Gram-negative bacteria: Proteus mirabilis; conditions: for MIC P. mirabilis: two-fold serial dilution
Procedure, shortened: as §1

[10] = system: Proteus vulgaris; assay: MIC against Gram-negative bacteria: Proteus vulgaris; conditions: for MIC P. vulgaris: two-fold serial dilution
Procedure, shortened: as §1

[11] = system: Serratia marcescens; assay: MIC against Gram-negative bacteria: Serratia marcescens; conditions: for MIC S. marcescens: two-fold serial dilution
Procedure, shortened: as §1

[12] = 10 h cultivation at 37° C., 5×10^5 CFU/mL
[13] = 96-well plate, 5×10^5 CFU/mL, 37° C., 10 h

PRT1123 (QLTGCQGHTCPLAATCIPIFESGVHSYVCHCPPGTHGPFCG; listed as Homo sapiens)
MIC [1]: 25 µg/mL
MIC E. coli BL21 [2, 12]: 50 µg/mL
MIC P. aeruginosa [3, 12]: 25 µg/mL
MIC K. pneumonia [4, 12]: 12.5 µg/mL
MIC E. cloacae [5, 12]: 25 µg/mL
MIC A. hydrophila [6, 12]: 50 µg/mL
MIC C. diversus [7, 12]: 12.5 µg/mL
MIC M. catarrhalis [8, 12]: 25 µg/mL
MIC P. mirabilis [9, 12]: 50 µg/mL
MIC P. vulgaris [10, 12]: 25 µg/mL
MIC S. marcescens [11, 12]: 12.5 µg/mL

PRT586 (CPCPEGPGSQRHFATSCHQDEYSQQIVCHCRAGYTGLRCEACAPGHFGDPSRPGGRCQL; listed as Homo sapiens)
MIC [1]: 12.5 µg/mL
MIC against E. coli BL21 [2, 13]: 50 µg/mL
MIC against P. aeruginosa [3, 13]: 12.5 µg/mL
MIC against K. pneumonia [4, 13]: 50 µg/mL
MIC against E. cloacae [5, 13]: 12.5 µg/mL
MIC against A. hydrophila [6, 13]: 50 µg/mL
MIC against C. diversus [7, 13]: 12.5 µg/mL
MIC against M. catarrhalis [8, 13]: 25 µg/mL
MIC against P. mirabilis [9, 13]: 50 µg/mL
MIC against P. vulgaris [10, 13]: 25 µg/mL
MIC against S. marcescens [11, 13]: 12.5 µg/mL

PRT98 (DINECATPSKVSCGKFSDCWNTEGSYDCVCSPGYEPVSGAKTFKNESENTCQ; listed as Homo sapiens)
MIC [1]: 12.5 µg/mL
MIC (μg/mL) E. coli BL21 ([2]; E. coli BL21, 96-well plate, 5×10^5 CFU/mL, 37° C., 10 h): 50 µg/mL
MIC (μg/mL) P. aeruginosa ([3]; Pseudomonas aeruginosa, 96-well plate, 5×10^5 CFU/mL, 37° C., 10 h): 25 µg/mL
MIC (μg/mL) K. pneumonia ([4]; Klebsiella pneumonia, 96-well plate, 5×10^5 CFU/mL, 37° C., 10 h): 12.5 µg/mL
MIC (μg/mL) E. cloacae ([5]; Enterobacter cloacae, 96-well plate, 5×10^5 CFU/mL, 37° C., 10 h): 25 µg/mL
MIC (μg/mL) A. hydrophila ([6]; Aeromonas hydrophila, 96-well plate, 5×10^5 CFU/mL, 37° C., 10 h): 50 µg/mL
MIC (μg/mL) C. diversus ([7]; Citrobacter diversus, 96-well plate, 5×10^5 CFU/mL, 37° C., 10 h): 25 µg/mL
MIC (μg/mL) M. catarrhalis ([8]; Moraxella catarrhalis, 96-well plate, 5×10^5 CFU/mL, 37° C., 10 h): 100 µg/mL
MIC (μg/mL) P. mirabilis ([9]; Proteus mirabilis, 96-well plate, 5×10^5 CFU/mL, 37° C., 10 h): 50 µg/mL
MIC (μg/mL) P. vulgaris ([10]; Proteus vulgaris, 96-well plate, 5×10^5 CFU/mL, 37° C., 10 h): 12.5 µg/mL
MIC (μg/mL) S. marcescens ([11]; Serratia marcescens, 96-well plate, 5×10^5 CFU/mL, 37° C., 10 h): 50 µg/mL

PRT1024 (DVDECQPSRCHPDAFCYNTPGSFTCQCKPGYQGDGFRCV; listed as Homo sapiens)
MIC [1]: 50 µg/mL
MIC ([2]; E. coli BL21, 10 h cultivation at 37° C.): 12.5 µg/mL
MIC ([3]; P. aeruginosa, 10 h cultivation at 37° C.): 50 µg/mL
MIC ([4]; K. pneumonia, 10 h cultivation at 37° C.): 25 µg/mL
MIC ([5]; E. cloacae, 10 h cultivation at 37° C.): 12.5 µg/mL
MIC ([6]; A. hydrophila, 10 h cultivation at 37° C.): 25 µg/mL
MIC ([7]; C. diversus, 10 h cultivation at 37° C.): 50 µg/mL
MIC ([8]; M. catarrhalis, 10 h cultivation at 37° C.): 25 µg/mL
MIC ([9]; P. mirabilis, 10 h cultivation at 37° C.): 12.5 µg/mL
MIC ([10]; P. vulgaris, 10 h cultivation at 37° C.): 50 µg/mL
MIC ([11]; S. marcescens, 10 h cultivation at 37° C.): 12.5 µg/mL

PRT1143 (NLDECLSEPCLHDGVCIDGINHYTCDCKSGFFGTHCE; listed as Homo sapiens)
MIC [1]: 12.5 µg/mL
MIC E. coli BL21 [2, 12]: 25 µg/mL
MIC P. aeruginosa [3, 12]: 50 µg/mL
MIC K. pneumonia [4, 12]: 25 µg/mL
MIC E. cloacae [5, 12]: 12.5 µg/mL
MIC A. hydrophila [6, 12]: 50 µg/mL
MIC C. diversus [7, 12]: 12.5 µg/mL
MIC M. catarrhalis [8, 12]: 50 µg/mL
MIC P. mirabilis [9, 12]: 12.5 µg/mL
MIC P. vulgaris [10, 12]: 50 µg/mL
MIC S. marcescens [11, 12]: 12.5 µg/mL
